Key:
[1] = test system: indomethacin induced inflammatory bowel disease in rats; test: Rat model of inflammatory bowel disease (IBD); type: in vivo; conditions: 5 days, female rats
Protocol: Budesonide and Budesonide PTNP were compared in a model of inflammatory bowel disease (IBD) as an efficacy model of inflammation. In this model, female rats were given two subcutaneous doses of 8 mg/kg indomethacin at 24 hour intervals to induce lesions resembling those occurring in Crohn's disease in the small intestine. Intravenous daily treatment with vehicle, budesonide (0.02, 0.2 or 2 mg/kg) or budesonide PTNP (0.02, 0.2 or 2 mg/kg) or oral daily treatment with Dexamethasone (0.1 mg/kg) was initiated one day before indomethacin treatment (day −1) and continued for 5 total days (days −1 to 3). Animals were euthanized on day 4, and a 10 cm area at risk in the small intestine was scored for gross pathology and weighed.
Using a disease scoring system in which a score of 0 is normal, and a score of 5 indicates death due to IBD symptoms, normal rats have an average score of 0, and an average intestinal weight of 0.488 g.

[2] = Rat pharmacokinetics after a single intravenous dose; type: in vivo, Rats (male Sprague Dawley); conditions: single intravenous dose 0.5 mg/kg, plasma, individual rats
Protocol: Rats (male Sprague Dawley, approximately 300 g with jugular cannulae) were given a single intravenous dose of 0.5 mg/kg of budesonide or passively targeted nanoparticles (PTNP) encapsulating budesonide (prepared as in Example 16) at time=0. At various times after dosing, blood samples were collected from the jugular cannulae into tubes containing lithium heparin, and plasma was prepared. Plasma levels were determined by extraction of the budesonide from plasma followed by LCMS analysis.

CCCC1O[C@@H]2C[C@H]3[C@@H]4CCC5=CC(=O)C=C[C@]5(C)[C@H]4[C@@H](O)C[C@]3(C)[C@]2(C(=O)CO)O1 (some centres unmarked) [Budesonide, budesonide]
decrease of intestinal scores towards normal ([1]; 0.02 mg/kg intravenous daily): 52%
decrease of small intestine weights toward normal ([1]; 0.02 mg/kg intravenous daily): 52%
decrease of intestinal scores towards normal ([1]; 0.2 mg/kg intravenous daily): 53%
decrease of small intestine weights toward normal ([1]; 0.2 mg/kg intravenous daily): 53%
decrease of intestinal scores towards normal ([1]; 2 mg/kg intravenous daily): 59%
decrease of small intestine weights toward normal ([1]; 2 mg/kg intravenous daily): 59%
AUCinf [2]: 159 ng·h/mL
t1/2 [2]: 45 min

— patent publication US8518963B2, “Therapeutic polymeric nanoparticle compositions with high glass transition temperature or high molecular weight copolymers” (BIND Therapeutics, Inc., priority 2009, dated 2013)
